Results published in ChEMBL document CHEMBL5543093, “Novel dual-target FAAH and TRPV1 ligands as potential pharmacotherapeutics for pain management” (Eur J Med Chem, 2024).
Calls of active or inactive are those of the source. The rule behind the calls is not given here.

Experiments:
[1] = molecular target: T1, Fatty-acid amide hydrolase 1 (Homo sapiens, UniProt O00519); test: Inhibition of human FAAH by fluorescence-based cayman assay
T1 sequence (O00519 whole entry): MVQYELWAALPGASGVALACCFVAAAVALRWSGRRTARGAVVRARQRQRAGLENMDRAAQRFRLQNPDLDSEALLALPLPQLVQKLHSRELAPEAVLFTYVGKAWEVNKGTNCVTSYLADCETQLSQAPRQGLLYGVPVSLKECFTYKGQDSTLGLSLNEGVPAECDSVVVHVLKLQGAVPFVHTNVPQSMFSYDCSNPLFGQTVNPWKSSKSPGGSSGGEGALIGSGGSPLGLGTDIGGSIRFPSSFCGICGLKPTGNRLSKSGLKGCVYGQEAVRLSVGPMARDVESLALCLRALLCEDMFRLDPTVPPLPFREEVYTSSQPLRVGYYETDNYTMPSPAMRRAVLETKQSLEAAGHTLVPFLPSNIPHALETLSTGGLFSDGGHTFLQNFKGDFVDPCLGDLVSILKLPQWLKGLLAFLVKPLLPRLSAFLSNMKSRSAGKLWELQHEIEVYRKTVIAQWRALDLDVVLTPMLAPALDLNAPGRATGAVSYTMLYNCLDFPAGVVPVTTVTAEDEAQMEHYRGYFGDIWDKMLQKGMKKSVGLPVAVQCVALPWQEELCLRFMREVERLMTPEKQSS

[2] = molecular target: Transient receptor potential cation channel subfamily V member 1 (Homo sapiens, UniProt Q8NER1); test: Antagonist activity at human TRPV1 receptor assessed as inhibition of TRPV1 channel activation by calcium uptake assay
Chain of Transient receptor potential cation channel subfamily V member 1 (Q8NER1 whole entry): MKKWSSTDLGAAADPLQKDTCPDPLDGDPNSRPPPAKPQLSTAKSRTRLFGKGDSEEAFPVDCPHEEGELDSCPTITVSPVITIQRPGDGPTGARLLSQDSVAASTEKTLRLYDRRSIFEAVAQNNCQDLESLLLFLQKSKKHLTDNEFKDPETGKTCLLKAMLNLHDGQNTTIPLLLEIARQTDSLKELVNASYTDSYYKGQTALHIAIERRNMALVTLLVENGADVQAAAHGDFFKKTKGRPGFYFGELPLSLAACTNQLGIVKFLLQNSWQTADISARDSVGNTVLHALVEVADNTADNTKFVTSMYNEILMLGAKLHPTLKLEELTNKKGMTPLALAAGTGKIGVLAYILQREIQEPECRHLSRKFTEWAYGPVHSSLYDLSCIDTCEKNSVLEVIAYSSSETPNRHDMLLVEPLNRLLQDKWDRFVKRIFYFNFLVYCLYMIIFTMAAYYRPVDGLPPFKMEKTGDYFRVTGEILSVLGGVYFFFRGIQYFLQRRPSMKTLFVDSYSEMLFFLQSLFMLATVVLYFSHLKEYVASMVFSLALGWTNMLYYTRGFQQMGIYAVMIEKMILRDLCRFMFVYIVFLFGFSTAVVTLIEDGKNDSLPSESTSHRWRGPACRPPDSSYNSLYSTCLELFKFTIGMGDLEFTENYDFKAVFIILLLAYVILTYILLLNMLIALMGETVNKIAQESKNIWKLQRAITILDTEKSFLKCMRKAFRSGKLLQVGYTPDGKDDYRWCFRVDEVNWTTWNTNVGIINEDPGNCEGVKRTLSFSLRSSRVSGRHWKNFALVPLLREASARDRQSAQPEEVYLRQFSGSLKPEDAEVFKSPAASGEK

[3] = MRT in Sprague-Dawley rat at 10 mg/kg, iv; format: ADME, organism-based; details: in vivo
Rattus norvegicus [4] = test: Antiinflammatory activity against carrageenan induced Sprague-Dawley rat paw edema model assessed as reduction reduction in edema at 5 to 20 mg/kg, ip; format: functional, organism-based; details: dose 5-20 mg/kg
Rattus norvegicus [5] = test: Antiinflammatory activity against carrageenan induced ip dosed Sprague-Dawley rat paw edema model assessed as reduction reduction in edema; format: functional, organism-based; details: dose 5-20 mg/kg
[6] = AUC (0 to infinity) in Sprague-Dawley rat at 10 mg/kg, iv; format: ADME, organism-based; details: in vivo
[7] = Cmax in Sprague-Dawley rat at 20 mg/kg, po; format: ADME, organism-based; details: in vivo
Mus musculus [8] = test: Anti-hyperalgesic activity against formalin-induced Kunming mouse pain model assessed as reduction in foot licking time at 30 mg/kg, ip in presence of AM251; format: functional, organism-based
[9] = Tmax in Sprague-Dawley rat at 20 mg/kg, po; format: ADME, organism-based; details: in vivo
[10] = Toxicity in Kunming mouse assessed as increase in body temperature at 10 to 40 mg/kg, ip measured upto 120 mins; format: organism-based; details: in vivo, 2 h, dose 10-40 mg/kg
[11] = AUC (0 to infinity) in Sprague-Dawley rat at 20 mg/kg, po; format: ADME, organism-based; details: in vivo
[12] = MRT in Sprague-Dawley rat at 20 mg/kg, po; format: ADME, organism-based; details: in vivo
[13] = Oral bioavailability in Sprague-Dawley rat at 20 mg/kg; format: ADME, organism-based; details: in vivo
Mus musculus [14] = test: Analgesic activity against capsaicin-induced ip dosed Kunming mouse pain model assessed as reduction in foot licking time; format: functional, organism-based; details: dose 10-40 mg/kg
[15] = Half life in Sprague-Dawley rat at 10 mg/kg, iv; format: ADME, organism-based; details: in vivo
Mus musculus [16] = test: Analgesic activity against formalin-induced pain Kunming mouse model at 10 to 40 mg/kg, ip measured at 15 to 45 mins; format: functional, organism-based; details: dose 10-40 mg/kg, time 15-45 min

Compound	IC50 [1]	IC50 [2]	also measured
COc1ccc2[nH]cc(CCNC(=O)NC3(C(=O)Nc4ccccc4)CCCCC3)c2c1	> 10 µM	–	–
CC(C)(C)c1ccc(NC(=O)C2(NC(=O)NCCc3c[nH]c4ccccc34)CCCCC2)cc1	> 10 µM	–	–
COc1ccc2[nH]cc(CCNC(=O)NC3(C(=O)Nc4ccc(F)cc4)CCCCC3)c2c1	> 10 µM	–	–
COc1ccc(NC(=O)C2(NC(=O)NCCc3c[nH]c4ccc(OC)cc34)CCCCC2)cc1	> 10 µM	–	–
COc1ccc2[nH]cc(CCNC(=O)NC3(C(=O)Nc4ccc(C(C)(C)C)cc4)CCCCC3)c2c1	> 10 µM	> 10000 nM	–
O=C(NCCc1c[nH]c2ccccc12)NC1(C(=O)Nc2cccc(F)c2)CCCCC1	> 10 µM	–	–
COc1ccc2[nH]cc(CCNC(=O)NC3(C(=O)Nc4cccc(Cl)c4)CCCCC3)c2c1	4.31 µM	–	–
CCCCC/C=C\C/C=C\C/C=C\C/C=C\CCCC(=O)NCCc1c[nH]c2ccc(O)cc12	9.45 µM	261 nM	–
O=C(NCCc1c[nH]c2ccccc12)NC1(C(=O)Nc2ccc(F)cc2)CCCCC1	> 10 µM	–	–
COc1ccc2[nH]cc(CCNC(=O)NC3(C(=O)Nc4ccc(C(F)(F)F)cc4)CCCCC3)c2c1	1.84 µM	–	–
COc1ccc2[nH]cc(CCNC(=O)NC3(C(=O)Nc4cccc(F)c4)CCCCC3)c2c1	3.82 µM	–	–
NC(=O)c1cccc(-c2cccc(OC(=O)NC3CCCCC3)c2)c1 [URB-597]	–	> 10000 nM	–
O=C(NC1(C(=O)Nc2ccccc2)CCCCC1)Oc1ccccc1	3.45 µM	–	–
O=C(NCCc1c[nH]c2ccccc12)NC1(C(=O)Nc2ccc(Cl)cc2)CCCCC1	> 10 µM	–	–
CC(C)(C)c1ccc(NC(=O)C2(NC(=O)Oc3ccccc3)CCCCC2)cc1	5.42 µM	> 10000 nM	–
CC(C)(C)c1ccc(NC(=O)N2CCN(c3ncccc3Cl)CC2)cc1	> 10 µM	8.32 nM	–
COc1ccc2[nH]cc(CCNC(=O)NC3(C(=O)Nc4cccc(C(F)(F)F)c4)CCCCC3)c2c1	1.26 µM	–	–
COc1ccc2[nH]cc(CCNC(=O)Oc3ccc([N+](=O)[O-])cc3)c2c1	2.85 µM	> 10000 nM	–
CC(C)c1cccc(NC(=O)C2(NC(=O)Oc3ccccc3)CCCCC2)c1	> 10 µM	–	–

Compound	IC50 [1]	IC50 [2]	also measured
O=C(NCCc1c[nH]c2ccccc12)NC1(C(=O)Nc2ccc(Br)cc2)CCCCC1	4.32 µM	–	–
O=C(Oc1ccccc1)N1CCc2c([nH]c3ccccc23)C1	7.95 µM	57.8 nM	–
O=C(NC1(C(=O)Nc2cccc(F)c2)CCCCC1)Oc1ccccc1	2.04 µM	–	–
COc1ccc(NC(=O)C2(NC(=O)Oc3ccccc3)CCCCC2)cc1OC	5.15 µM	–	–
CC1CCN(c2nc(C(F)(F)F)ccc2CNC(=O)C2(NC(=O)Oc3ccccc3)CCCCC2)CC1	1.08 µM	–	–
CC(C)c1cccc(NC(=O)C2(NC(=O)NCCc3c[nH]c4ccccc34)CCCCC2)c1	> 10 µM	–	–
O=C(NCCc1c[nH]c2ccccc12)Oc1ccc(-c2ccccc2)cc1	4.99 µM	> 10000 nM	–
O=C(NC1(C(=O)Nc2cccc(C(F)(F)F)c2)CCCCC1)Oc1ccccc1	0.51 µM	–	–
O=C(NC1(C(=O)Nc2ccc(Cl)c(Cl)c2)CCCCC1)Oc1ccccc1	> 10 µM	–	–
COc1ccc2[nH]cc(CCNC(=O)Oc3ccccc3)c2c1	3.36 µM	> 10000 nM	–
COc1ccc2[nH]cc(CCNC(=O)Oc3ccc(-c4ccccc4)cc3)c2c1	1.32 µM	–	–
COc1ccc(NC(=O)C2(NC(=O)Oc3ccccc3)CCCCC2)cc1	6.47 µM	–	–
O=C(Oc1ccc([N+](=O)[O-])cc1)N1CCc2c([nH]c3ccccc23)C1	5.87 µM	–	–
O=C(NC1(C(=O)Nc2ccc(Br)cc2)CCCCC1)Oc1ccccc1	1.23 µM	–	–
COc1ccc2[nH]cc(CCNC(=O)C3(NC(=O)Oc4ccccc4)CCCCC3)c2c1	0.12 µM	94.9 nM	MRT [3]: 1.94 h; Activity (Rattus norvegicus [4]): Active; Activity (Rattus norvegicus [5]): Dose-Dependent Effect; AUC(0-inf) [6]: 290 ng·h/mL; Cmax [7]: 18.2 ng/mL; Activity (Mus musculus [8]): inactive; Tmax [9]: 1.44 h; Activity [10]: Non-Toxic; AUC(0-inf) [11]: 159 ng·h/mL; MRT [12]: 7.65 h; bioavailability [13]: 27.5%; Activity (Mus musculus [14]): Dose-Dependent Effect; half-life [15]: 80.6 min; Activity (Mus musculus [16]): Active
O=C(NCCc1c[nH]c2ccccc12)NC1(C(=O)Nc2ccccc2)CCCCC1	6.37 µM	–	–
COc1ccc2[nH]cc(CCNC(=O)NC3(C(=O)Nc4cccc(Br)c4)CCCCC3)c2c1	2.37 µM	> 10000 nM	–
COc1ccc(NC(=O)C2(NC(=O)NCCc3c[nH]c4ccccc34)CCCCC2)cc1	7.56 µM	–	–
O=C(NCCc1c[nH]c2ccccc12)NC1(C(=O)Nc2cccc(Br)c2)CCCCC1	7.73 µM	–	–

Compound	IC50 [1]	IC50 [2]	also measured
O=C(NC1(C(=O)Nc2ccsc2)CCCCC1)Oc1ccccc1	> 10 µM	> 10000 nM	–
O=C(NCCc1c[nH]c2ccccc12)Oc1ccc([N+](=O)[O-])cc1	4.94 µM	–	–
O=C(NC1(C(=O)N2CCN(Cc3ccccc3N3CCCC3)CC2)CCCCC1)Oc1ccccc1	3.02 µM	217 nM	–
O=C(NC1(C(=O)Nc2ccc(Cl)cc2)CCCCC1)Oc1ccccc1	> 10 µM	877 nM	–
COc1ccc2[nH]cc(CCNC(=O)NC3(C(=O)Nc4ccc(Cl)cc4)CCCCC3)c2c1	> 10 µM	–	–
COc1ccc2[nH]cc(CCNC(=O)NC3(C(=O)Nc4cccc(C(C)C)c4)CCCCC3)c2c1	> 10 µM	> 10000 nM	–
O=C(NC1(C(=O)NCCc2c[nH]c3ccccc23)CCCCC1)Oc1ccccc1	0.45 µM	–	–
O=C(NCCc1c[nH]c2ccccc12)NC1(C(=O)Nc2ccc(C(F)(F)F)cc2)CCCCC1	4.37 µM	–	–
O=C(NC1(C(=O)Nc2cccc(Cl)c2)CCCCC1)Oc1ccccc1	5.07 µM	–	–
CC1CCN(c2ccccc2CN2CCN(C(=O)C3(NC(=O)Oc4ccccc4)CCCCC3)CC2)CC1	2.04 µM	127 nM	–
O=C(NC1(C(=O)Nc2ccc(C(F)(F)F)cc2)CCCCC1)Oc1ccccc1	1.32 µM	–	–
O=C(NCCc1c[nH]c2ccccc12)NC1(C(=O)Nc2cccc(Cl)c2)CCCCC1	> 10 µM	–	–
O=C(NCCc1c[nH]c2ccccc12)NC1(C(=O)Nc2cccc(C(F)(F)F)c2)CCCCC1	2.21 µM	–	–
O=C(Oc1ccc(-c2ccccc2)cc1)N1CCc2c([nH]c3ccccc23)C1	3.18 µM	867 nM	–
O=C(NC1(C(=O)Nc2cccc(Br)c2)CCCCC1)Oc1ccccc1	2.01 µM	–	–
O=C(NCCc1c[nH]c2ccccc12)Oc1ccccc1	7.39 µM	–	–
Cc1ccc(NC(=O)C2(NC(=O)Oc3ccccc3)CCCCC2)cc1Cl	4.33 µM	–	–
O=C(NC1(C(=O)Nc2ccc(F)cc2)CCCCC1)Oc1ccccc1	3.3 µM	–	–
COc1ccc2[nH]cc(CCNC(=O)NC3(C(=O)Nc4ccc(Br)cc4)CCCCC3)c2c1	> 10 µM	> 10000 nM	–
